Among the data in publication PMC8717366, “Synthesis and Pharmacological Characterization of Visabron, a Backbone Cyclic Peptide Dual Antagonist of α4β1 (VLA-4)/α9β1 Integrin for Therapy of Multiple Sclerosis” (JACS Au, 2021) are IC50 values, retold here.

The target in one experiment is T1, α1β1-collagen IV (Homo sapiens, UniProt P05556+P56199).
T1 construct: expressed in transfected cells; host or cells: K562 transfected with α1 integrin (gift of Dr. M. Hemler)
The experiment is described as follows: Adhesion of α1-K562 overexpressor cells to immobilized collagen IV. The format is cell-based. On the procedure:
(§1) Cell adhesion assay was carried out as previously described[47] with minor modifications. The day before the experiment, each well was coated with VCAM-1 (3 mg/mL) immobilized on the 96-well plate in PBS by overnight incubation at 4 °C. Thereafter, nonspecific binding was blocked by incubating the wells with 1% (w/v) bovine serum albumin (BSA) in Hank’s Balanced Salt Solution (HBSS) containing 5 mM MgCl2 at room temperature for 1 h before use. The cells were labeled by incubation with 12.5 μM 5-chloromethylfluorescein diacetate (CMFDA) in HBSS without 1% BSA at 37 °C for 30 min. The labeled cells were then centrifuged at 1000 rpm and washed twice with HBSS containing 1% BSA to remove excess CMFDA. Labeled cells (about 1 × 10^5 cells/well) were plated on each well in the presence or absence of visabrons and incubated at 37 °C for 60 min. Unbound cells were removed by washing the wells three times with 1% (w/v) BSA in HBSS, and bound cells were lysed by the addition of 0.5% Triton X-100 (diluted in DDW). The fluorescence in each well was quantified with a SPECTRAFluor Plus plate reader (Tecan), at λex = 485 nm and λem = 530 nm. To determine the number of adhered cells from the fluorescence values, a standard curve was generated by serial dilution of known numbers of CMFDA-labeled cells. […]
(§2) Table S6. TMLD- linear peptides inhibition of adhesion of integrin expressing cells to the respective immobilized ligands a a The cells were incubated for 30 min at 37 °C with the cells (1 x 105) in the 96 -well plate, previously covered with extracellular matrix ligand, in 100 µL of HBSS containing calcium and magnesium. After being washed with the same buffer, the adhered cells were lysed by Triton X-100, and the plate was read using Tecan spectrofluorimeter. The inhibitory dose 50% (IC 50) values represent ing mean ± standard deviatio ns (n=6) were calculated from dose response curves. bJurkat cells,VCAM -1; c α9-SW480 overexpressing cells, VCAM-1; d α1-K562 overexpressing cells, collagen IV ;e α2-K562 overexpressing cells, collagen I; f K562 wild type

The next experiment addresses T2, α2β1-collagen I (Homo sapiens, UniProt P05556+P17301).
T2 construct: expressed in transfected cells; host or cells: K562 transfected with α2 integrin (gift of Dr. M. Hemler)
Kind of experiment: Adhesion of α2-K562 overexpressor cells to immobilized collagen I. It is filed as cell-based. On the procedure:
as §1, §2

The next experiment deals with T3, α5β1-fibronectin (Homo sapiens, UniProt P05556+P08648).
T3 construct: host or cells: K562 wild type
The experiment is described as follows: Adhesion of wild-type K562 cells to immobilized fibronectin. The format is cell-based. Here is the method:
as §1, §2

The next experiment deals with T4, α4β1-VCAM-1 Fc chimera (Homo sapiens, UniProt P05556+P13612).
T4 construct: purchased R&D Systems Co (Minneapolis, MN)
Kind of experiment: ELISA solid-phase ligand-receptor binding, integrin α4β1 to VCAM-1 Fc chimera. Here is the method: (§3) Recombinant human VCAM-1 and MadCAM-1 (3 mg/mL in phosphate-buffered saline containing divalent cations), were immobilized on the wells of a 96-well ELISA plate (Dynatech Immulon) by overnight incubation at 4 °C. After washing with HBSST (Hanks’ Balanced Salt solution containing calcium and magnesium and 0.05% Tween-20) the plates were blocked with 5% BSA in HBSST by incubation at 37 °C for 1 h. The plates were washed with HBSST, and recombinant human integrin α4β1 or α4β7 (3 mg/mL) was added in the presence or absence of competitor cyclic peptides, disintegrins, or monoclonal anti-integrin antibodies dissolved in HBSS containing 1% BSA. The plates were thereafter incubated at 30 °C for 3 h, as time-binding had reached a plateau, and then washed 3 times with HBSST. Bound integrins were quantitated using primary anti-integrin polyclonal and monoclonal antibodies at a concentration of 0.5 mg/mL in HBSST containing 1% BSA, and incubated at 37 °C for 1 h. The plates were washed 3 times with HBSST and secondary antibodies- alkaline phosphatase (AP) conjugated (Sigma Co.) were added at dilution 1:1000 and incubated at 37 °C for 1 h. Thereafter, the plates were washed 3 times with HBSST and twice with HBSS and the alkaline phosphatase substrate 4-nitrophenyl phosphate was added to the wells for 30 min. The plates were read using Tecan Spectrophotometer at 405 nm. The level of nonspecific binding was measured in each experiment by determining the level of binding to wells coated with BSA alone.

The target in another experiment is α9β1-VCAM-1 Fc chimera (Homo sapiens, UniProt P05556+Q13797). The experiment is described as follows: ELISA binding assay, α9β1 to VCAM-1 Fc chimera.
Experiment [1] concerns the target T5, α4β1 (Jurkat lymphocytes-VCAM-1) (Homo sapiens, UniProt P05556+P13612).
T5 construct: host or cells: Jurkat (untreated or TNFα-treated)
Kind of experiment: Adhesion of Jurkat lymphocytes to immobilized VCAM-1. The format is cell-based. Here is the method: as §1, §2

The target of another experiment is T6, α9β1 (Homo sapiens, UniProt P05556+Q13797).
T6 construct: generated by transfection with full-length α9 expression plasmid pcDNAIneoa9; expressed in transfected cells; host or cells: SW480 transfected with pcDNAIneoa9
Kind of experiment: Adhesion of α9-SW480 overexpressing cells to VCAM-1. It is filed as cell-based. The note with it: n=6, Table S6, read-out: IC50 α9β1 (linear peptides). Here is the method:
as §2, with “type […]” for “type”
(1 picture or pasted object on this page, not shown here)

The next experiment addresses T7, α4β7-MAdCAM-1 Fc chimera (Homo sapiens, UniProt P13612+P26010).
T7 construct: purchased R&D Systems Co (Minneapolis, MN)
The experiment is described as follows: ELISA solid-phase ligand-receptor binding, integrin α4β7 to MAdCAM-1 Fc chimera. Here is the method: as §3

The test system of experiment [2] is U937 macrophages-VCAM-1 (α4β1, αMβ2, α3β1, α6β1). The experiment is described as follows: Adhesion of U937 macrophages to immobilized VCAM-1. It is filed as cell-based, human. On the procedure: Cell adhesion assay was carried out as previously described[47] with minor modifications. The day before the experiment, each well was coated with VCAM-1 (3 mg/mL) immobilized on the 96-well plate in PBS by overnight incubation at 4 °C. Thereafter, nonspecific binding was blocked by incubating the wells with 1% (w/v) bovine serum albumin (BSA) in Hank’s Balanced Salt Solution (HBSS) containing 5 mM MgCl2 at room temperature for 1 h before use. The cells were labeled by incubation with 12.5 μM 5-chloromethylfluorescein diacetate (CMFDA) in HBSS without 1% BSA at 37 °C for 30 min. The labeled cells were then centrifuged at 1000 rpm and washed twice with HBSS containing 1% BSA to remove excess CMFDA. Labeled cells (about 1 × 10^5 cells/well) were plated on each well in the presence or absence of visabrons and incubated at 37 °C for 60 min. Unbound cells were removed by washing the wells three times with 1% (w/v) BSA in HBSS, and bound cells were lysed by the addition of 0.5% Triton X-100 (diluted in DDW). The fluorescence in each well was quantified with a SPECTRAFluor Plus plate reader (Tecan), at λex = 485 nm and λem = 530 nm. To determine the number of adhered cells from the fluorescence values, a standard curve was generated by serial dilution of known numbers of CMFDA-labeled cells.

The mark [3] stands for this setting: α1-K562 overexpressed cells, 30 min at 37 °C, read-out: IC50 α1β1-collagen IV.
The mark [4] stands for this setting: α2-K562 overexpressed cells, 30 min at 37 °C, read-out: IC50 α2β1-collagen I.
The mark [5] stands for this setting: wild-type K562 (α5β1), 30 min at 37 °C, read-out: IC50 α5β1-fibronectin.
The mark [6] stands for this setting: Jurkat treated with TNF-α (10 ng/mL) for 24 h, read-out: IC50 Jurkat lymphocytes-VACAM-1 TNFα.
The mark [7] stands for this setting: untreated Jurkat lymphocytes (α4β1), read-out: IC50 Jurkat lymphocytes-VACAM-1 control.
[8] abbreviates: α1-K562 overexpressing cells, collagen IV, n=6, Table S6, read-out: IC50 α1β1 (linear peptides).
The mark [9] stands for this setting: α2-K562 overexpressing cells, collagen I, n=6, Table S6, read-out: IC50 α2β1 (linear peptides).
The mark [10] stands for this setting: K562 wild type cells, fibronectin, n=6, Table S6, read-out: IC50 α5β1 (linear peptides).
Where [11] appears, read: Jurkat cells, VCAM-1, n=6, Table S6, read-out: IC50 α4β1 (linear peptides).

Where two headings read alike, the source gives them in different places. Numbered stars: 1 amine (or outer) side, 2 acyl side, 3 side chain; on linkers, the order of the positions; unused ones are H or OH. Bridge positions count the residues as written; N and C are the ends. Square brackets hold non-standard residues; d marks the D form. Peptide text beside a SMILES is read from it. N(6-aminohexyl)Gly = O=C(CN(CCCCCCN[*:3])[*:1])[*:2]; CO = O=C([*:1])[*:2]; Nlys = NCCCCNCC(=O)O

T3 sequence (P08648 42-894 limits assumed): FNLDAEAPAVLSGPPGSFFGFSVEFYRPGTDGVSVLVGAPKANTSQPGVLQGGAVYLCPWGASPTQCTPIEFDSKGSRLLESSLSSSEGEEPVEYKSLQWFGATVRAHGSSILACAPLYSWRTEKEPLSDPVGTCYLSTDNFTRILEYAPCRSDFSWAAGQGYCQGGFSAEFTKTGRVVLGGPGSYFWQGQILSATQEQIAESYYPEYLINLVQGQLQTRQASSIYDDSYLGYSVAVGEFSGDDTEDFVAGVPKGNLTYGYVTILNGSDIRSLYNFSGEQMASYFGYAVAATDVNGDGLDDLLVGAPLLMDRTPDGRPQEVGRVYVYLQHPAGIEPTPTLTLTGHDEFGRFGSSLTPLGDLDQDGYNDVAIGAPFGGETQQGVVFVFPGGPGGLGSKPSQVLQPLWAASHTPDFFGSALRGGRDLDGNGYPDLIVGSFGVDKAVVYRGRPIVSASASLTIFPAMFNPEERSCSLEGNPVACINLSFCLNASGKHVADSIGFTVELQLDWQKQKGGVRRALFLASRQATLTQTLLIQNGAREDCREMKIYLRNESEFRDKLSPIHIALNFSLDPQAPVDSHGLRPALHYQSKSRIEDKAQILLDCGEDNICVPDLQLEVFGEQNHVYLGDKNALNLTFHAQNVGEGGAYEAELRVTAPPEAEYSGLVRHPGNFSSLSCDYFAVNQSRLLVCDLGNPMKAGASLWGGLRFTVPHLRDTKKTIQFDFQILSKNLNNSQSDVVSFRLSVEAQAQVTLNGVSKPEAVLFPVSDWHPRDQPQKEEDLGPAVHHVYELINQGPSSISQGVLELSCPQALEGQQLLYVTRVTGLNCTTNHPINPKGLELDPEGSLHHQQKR
T3 sequence (P08648 895-1049 limits assumed): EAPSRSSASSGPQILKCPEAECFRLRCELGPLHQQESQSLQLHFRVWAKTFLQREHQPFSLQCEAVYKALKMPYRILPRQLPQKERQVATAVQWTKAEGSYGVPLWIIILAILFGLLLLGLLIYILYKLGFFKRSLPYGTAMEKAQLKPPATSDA
T3 sequence (P05556 21-798): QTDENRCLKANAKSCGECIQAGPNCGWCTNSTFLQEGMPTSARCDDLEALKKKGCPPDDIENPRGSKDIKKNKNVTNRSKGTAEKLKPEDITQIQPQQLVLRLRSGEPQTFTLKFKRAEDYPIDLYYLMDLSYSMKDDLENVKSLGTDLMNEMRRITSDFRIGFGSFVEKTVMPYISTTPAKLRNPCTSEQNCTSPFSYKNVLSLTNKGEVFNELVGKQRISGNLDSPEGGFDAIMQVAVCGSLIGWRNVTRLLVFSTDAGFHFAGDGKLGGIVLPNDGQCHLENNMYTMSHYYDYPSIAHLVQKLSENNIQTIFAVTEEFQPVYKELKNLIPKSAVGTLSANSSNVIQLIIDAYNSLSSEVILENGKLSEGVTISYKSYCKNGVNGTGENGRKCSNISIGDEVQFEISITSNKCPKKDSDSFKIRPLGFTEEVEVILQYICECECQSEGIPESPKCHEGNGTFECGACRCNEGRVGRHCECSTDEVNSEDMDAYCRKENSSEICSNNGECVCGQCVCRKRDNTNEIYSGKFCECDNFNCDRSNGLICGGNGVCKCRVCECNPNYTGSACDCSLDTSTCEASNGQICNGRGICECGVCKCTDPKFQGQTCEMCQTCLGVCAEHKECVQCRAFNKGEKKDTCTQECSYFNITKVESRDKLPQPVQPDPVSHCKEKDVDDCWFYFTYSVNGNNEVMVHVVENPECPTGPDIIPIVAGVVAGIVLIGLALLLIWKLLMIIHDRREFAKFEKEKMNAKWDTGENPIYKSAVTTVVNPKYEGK
T5 sequence (P13612 34-1032): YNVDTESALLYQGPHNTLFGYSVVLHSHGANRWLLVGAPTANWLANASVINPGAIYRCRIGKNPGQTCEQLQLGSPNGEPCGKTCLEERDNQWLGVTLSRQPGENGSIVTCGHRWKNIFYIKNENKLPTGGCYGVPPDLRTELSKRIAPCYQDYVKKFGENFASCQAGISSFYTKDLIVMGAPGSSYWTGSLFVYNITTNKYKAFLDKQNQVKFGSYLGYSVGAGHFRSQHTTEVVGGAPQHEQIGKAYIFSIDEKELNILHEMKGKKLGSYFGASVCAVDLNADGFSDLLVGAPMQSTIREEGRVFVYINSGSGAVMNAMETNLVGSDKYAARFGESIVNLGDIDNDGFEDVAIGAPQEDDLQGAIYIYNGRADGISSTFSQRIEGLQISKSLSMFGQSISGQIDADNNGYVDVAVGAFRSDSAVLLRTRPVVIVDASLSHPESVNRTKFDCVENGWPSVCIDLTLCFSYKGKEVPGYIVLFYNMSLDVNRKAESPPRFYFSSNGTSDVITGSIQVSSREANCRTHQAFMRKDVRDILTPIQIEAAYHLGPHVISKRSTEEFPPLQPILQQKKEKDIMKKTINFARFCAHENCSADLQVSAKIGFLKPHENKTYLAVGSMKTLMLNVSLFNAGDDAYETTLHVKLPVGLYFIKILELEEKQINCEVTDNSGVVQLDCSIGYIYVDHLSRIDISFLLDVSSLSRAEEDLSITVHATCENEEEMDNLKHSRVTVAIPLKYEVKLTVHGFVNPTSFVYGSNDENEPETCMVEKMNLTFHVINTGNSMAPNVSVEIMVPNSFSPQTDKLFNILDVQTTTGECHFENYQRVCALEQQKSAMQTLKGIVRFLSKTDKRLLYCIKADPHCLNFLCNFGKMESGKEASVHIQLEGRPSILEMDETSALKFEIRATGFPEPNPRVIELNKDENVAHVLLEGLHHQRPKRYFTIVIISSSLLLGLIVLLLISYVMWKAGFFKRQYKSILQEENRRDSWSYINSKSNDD
T5 sequence (P05556 21-798): as the sequence (P05556 21-798) above
T6 sequence (Q13797 30-1035): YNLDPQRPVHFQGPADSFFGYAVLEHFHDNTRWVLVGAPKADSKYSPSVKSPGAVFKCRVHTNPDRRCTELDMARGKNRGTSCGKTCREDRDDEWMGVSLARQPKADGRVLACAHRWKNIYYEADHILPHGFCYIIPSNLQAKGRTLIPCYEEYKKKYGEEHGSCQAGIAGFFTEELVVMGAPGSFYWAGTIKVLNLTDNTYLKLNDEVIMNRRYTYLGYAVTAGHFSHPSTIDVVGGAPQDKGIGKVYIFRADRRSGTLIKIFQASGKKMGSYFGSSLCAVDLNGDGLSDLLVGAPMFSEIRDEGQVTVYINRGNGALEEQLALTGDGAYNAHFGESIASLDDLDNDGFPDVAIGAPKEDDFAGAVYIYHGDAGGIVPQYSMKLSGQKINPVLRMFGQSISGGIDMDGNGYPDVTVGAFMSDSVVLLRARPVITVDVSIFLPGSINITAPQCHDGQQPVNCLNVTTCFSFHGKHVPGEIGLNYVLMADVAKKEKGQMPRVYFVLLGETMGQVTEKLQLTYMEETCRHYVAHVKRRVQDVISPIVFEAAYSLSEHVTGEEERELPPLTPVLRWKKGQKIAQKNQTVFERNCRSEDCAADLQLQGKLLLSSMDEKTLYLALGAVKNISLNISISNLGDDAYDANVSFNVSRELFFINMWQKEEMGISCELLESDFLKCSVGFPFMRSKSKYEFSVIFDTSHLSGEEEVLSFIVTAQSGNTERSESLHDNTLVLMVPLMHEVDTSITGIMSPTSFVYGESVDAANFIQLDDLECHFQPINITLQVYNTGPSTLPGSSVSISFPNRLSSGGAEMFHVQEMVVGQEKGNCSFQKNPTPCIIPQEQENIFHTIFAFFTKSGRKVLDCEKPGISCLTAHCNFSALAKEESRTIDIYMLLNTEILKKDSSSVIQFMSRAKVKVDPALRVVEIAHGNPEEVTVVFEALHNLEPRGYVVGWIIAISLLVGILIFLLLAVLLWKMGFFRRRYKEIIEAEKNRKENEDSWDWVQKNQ
T6 sequence (P05556 21-798): as the sequence (P05556 21-798) above
T2 sequence (P17301 30-1181): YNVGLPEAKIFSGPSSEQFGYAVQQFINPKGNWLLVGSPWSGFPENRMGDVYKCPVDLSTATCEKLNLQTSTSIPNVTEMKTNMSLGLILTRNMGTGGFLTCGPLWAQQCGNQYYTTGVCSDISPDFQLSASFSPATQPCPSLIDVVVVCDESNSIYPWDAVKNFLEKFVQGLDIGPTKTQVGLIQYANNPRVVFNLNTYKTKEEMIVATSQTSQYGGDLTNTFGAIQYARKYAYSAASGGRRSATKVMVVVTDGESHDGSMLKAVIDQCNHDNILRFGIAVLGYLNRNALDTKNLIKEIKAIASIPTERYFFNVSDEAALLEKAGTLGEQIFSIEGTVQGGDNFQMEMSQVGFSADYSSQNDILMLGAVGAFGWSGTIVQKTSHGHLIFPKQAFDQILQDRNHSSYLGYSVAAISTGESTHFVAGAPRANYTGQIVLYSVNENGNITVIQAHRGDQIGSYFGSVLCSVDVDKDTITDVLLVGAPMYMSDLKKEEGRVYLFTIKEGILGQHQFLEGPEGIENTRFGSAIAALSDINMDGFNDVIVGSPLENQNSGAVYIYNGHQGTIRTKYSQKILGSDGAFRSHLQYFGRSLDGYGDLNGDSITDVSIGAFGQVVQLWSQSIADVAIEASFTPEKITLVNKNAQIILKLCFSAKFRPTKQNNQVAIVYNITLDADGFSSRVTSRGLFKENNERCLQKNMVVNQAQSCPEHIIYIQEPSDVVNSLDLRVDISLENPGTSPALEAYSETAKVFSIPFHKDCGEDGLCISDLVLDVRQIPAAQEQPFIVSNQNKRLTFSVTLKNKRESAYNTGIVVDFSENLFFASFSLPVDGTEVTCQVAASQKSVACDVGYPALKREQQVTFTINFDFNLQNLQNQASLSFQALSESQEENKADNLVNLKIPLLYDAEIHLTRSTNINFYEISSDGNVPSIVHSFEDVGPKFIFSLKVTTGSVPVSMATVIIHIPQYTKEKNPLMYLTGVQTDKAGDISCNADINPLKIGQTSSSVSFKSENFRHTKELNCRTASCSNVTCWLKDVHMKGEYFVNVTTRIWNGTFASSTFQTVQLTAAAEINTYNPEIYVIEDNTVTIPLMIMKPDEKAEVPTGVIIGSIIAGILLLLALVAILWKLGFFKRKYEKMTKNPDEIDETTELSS
T2 sequence (P05556 21-798): as the sequence (P05556 21-798) above

Turning to `CSCC[C@@H]1NC(=O)[C@H]([C@@H](C)O)NC(=O)CN(C(=O)[C@@H](N)CCCNC(=N)N)CCCCNC(=O)NCCCCN(CC(=O)N[C@@H](CC(C)C)C(N)=O)C(=O)[C@H](CC(=O)O)NC(=O)[C@H](CC(C)C)NC1=O` [Arg-visabron c (4–4)] (H-R[Nlys]TMLD[Nlys]L-NH2; linker 2-7 via CO; N-terminus assumed), the IC50 on α1β1-collagen IV (setting [3]) is over 10000 µM; at α2β1-collagen I (setting [4]) it was over 10000 µM; on α5β1-fibronectin (setting [5]), over 10000 µM; at α4β1-VCAM-1 Fc chimera it was over 10000 µM; at α9β1-VCAM-1 Fc chimera, over 10000 µM; in experiment [1] (setting [6]), over 5000 µM. Moreover, the IC50 in experiment [1] (setting [7]) is over 5000 µM.

Consider `CSCC[C@H](NC(=O)[C@@H](NC(=O)[C@H](CCCNC(=N)N)NC(=O)[C@H](CCCCN)NC(=O)[C@@H](N)CS)[C@@H](C)O)C(=O)N[C@@H](CC(C)C)C(=O)N[C@@H](CC(=O)O)C(=O)NCC(=O)N[C@@H](CC(C)C)C(=O)N[C@@H](CC(N)=O)C(=O)N[C@@H](CC(=O)O)C(=O)N[C@@H](Cc1ccc(O)cc1)C(=O)N[C@@H](CS)C(N)=O` [sequence 3, CKRTMLDGLNDYC] (H-CKRTMLDGLNDYC-NH2; N-terminus and C-terminus assumed), for which the IC50 was over 10000 µM at α1β1-collagen IV (setting [8]); over 10000 µM on α2β1-collagen I (setting [9]); over 10000 µM on α5β1-fibronectin (setting [10]); 1450 ± 105 µM in experiment [1] (setting [11]); 1250 ± 95 µM on α9β1.

Turning to `CSCC[C@H](NC(=O)[C@H](C)NC(=O)[C@H](CCCNC(=N)N)NC(=O)[C@H](CCCCN)NC(=O)[C@@H](N)CS)C(=O)N[C@@H](CC(C)C)C(=O)N[C@@H](CC(=O)O)C(=O)NCC(=O)N[C@@H](CC(C)C)C(=O)N[C@@H](CC(N)=O)C(=O)N[C@@H](CC(=O)O)C(=O)N[C@@H](Cc1ccc(O)cc1)C(=O)N[C@@H](CS)C(N)=O` [sequence 4, CKRAMLDGLNDYC] (H-CKRAMLDGLNDYC-NH2; N-terminus and C-terminus assumed), the IC50 at α1β1-collagen IV (setting [8]) was over 10000 µM; on α2β1-collagen I (setting [9]) it was over 10000 µM; at α5β1-fibronectin (setting [10]) it was over 10000 µM; in experiment [1] (setting [11]) it was 3910 ± 80 µM; on α9β1 it was 2840 ± 115 µM.

Regarding `CSCC[C@H](NC(=O)[C@@H](NC(=O)[C@H](CCCNC(=N)N)NC(=O)[C@@H](N)CCCCN)[C@@H](C)O)C(=O)N[C@@H](CC(C)C)C(=O)N[C@@H](CC(=O)O)C(=O)NCC(=O)N[C@@H](CC(C)C)C(N)=O` [sequence 5, KRTMLDGL] (H-KRTMLDGL-NH2; N-terminus and C-terminus assumed), the IC50 was over 10000 µM at α1β1-collagen IV (setting [8]); over 10000 µM at α2β1-collagen I (setting [9]); over 10000 µM on α5β1-fibronectin (setting [10]); 1310 ± 95 µM in experiment [1] (setting [11]); 1260 ± 80 µM at α9β1.

On to `CSCC[C@@H]1NC(=O)[C@H]([C@@H](C)O)NC(=O)CN(C(=O)[C@@H](N)CCCCN)CCCCCCNC(=O)NCCCCCCN(CC(=O)N[C@@H](CC(C)C)C(N)=O)C(=O)[C@H](CC(=O)O)NC(=O)[C@H](CC(C)C)NC1=O` [visabron c (6–6)] (H-K[N(6-aminohexyl)Gly]TMLD[N(6-aminohexyl)Gly]L-NH2; linker 2-7 via CO), for which the IC50 at α1β1-collagen IV (setting [3]) is over 10000 µM; at α2β1-collagen I (setting [4]) it was over 10000 µM; at α5β1-fibronectin (setting [5]), over 10000 µM; at α4β1-VCAM-1 Fc chimera, 0.7 µM; at α4β7-MAdCAM-1 Fc chimera, over 500 µM; at α9β1-VCAM-1 Fc chimera, 0.9 µM. Also, the IC50 in experiment [1] (setting [6]) was found to be 4 µM; in [1] (setting [7]) it was 5 µM; in experiment [2] (U937 treated with PMA (10 ng/mL) for 24 h, read-out: IC50 U937 macrophages-VCAM-1 PMA), 15 µM; in experiment [2] (untreated U937, read-out: IC50 U937 macrophages-VCAM-1 control), 20 µM.
